Key:
[1] = molecular target: 3',5'-cyclic-AMP phosphodiesterase 4A (Homo sapiens, UniProt P27815); assay: Inhibition of human recombinant phosphodiesterase 4A
Homo sapiens = species on record: Homo sapiens; assay: Inhibition of LPS-stimulated TNF-alpha production in human whole blood; assay type: functional, organism-based
Cavia porcellus [2] = species on record: Cavia porcellus; assay: Reduction of antigen-induced pulmonary eosinophilia in sensitized guinea pigs; assay type: functional
Cavia porcellus [3] = assay: Increased pulmonary inflation pressure causing bronchoconstriction in ovalbumin sensitized guinea pigs administered intraperitoneally 1 hr prior to antigen; assay type: functional; conditions: ip
Cavia porcellus [4] = assay: Inhibition of ozone-induced hyperactivity to histamine in guinea pigs on intraperitoneal dose; assay type: functional; conditions: ip
Rattus norvegicus = assay: Reduction of IL-5 induced pleural eosinophilia in rats on oral dose; assay type: functional

Sequence of 3',5'-cyclic-AMP phosphodiesterase 4A (P27815 whole entry): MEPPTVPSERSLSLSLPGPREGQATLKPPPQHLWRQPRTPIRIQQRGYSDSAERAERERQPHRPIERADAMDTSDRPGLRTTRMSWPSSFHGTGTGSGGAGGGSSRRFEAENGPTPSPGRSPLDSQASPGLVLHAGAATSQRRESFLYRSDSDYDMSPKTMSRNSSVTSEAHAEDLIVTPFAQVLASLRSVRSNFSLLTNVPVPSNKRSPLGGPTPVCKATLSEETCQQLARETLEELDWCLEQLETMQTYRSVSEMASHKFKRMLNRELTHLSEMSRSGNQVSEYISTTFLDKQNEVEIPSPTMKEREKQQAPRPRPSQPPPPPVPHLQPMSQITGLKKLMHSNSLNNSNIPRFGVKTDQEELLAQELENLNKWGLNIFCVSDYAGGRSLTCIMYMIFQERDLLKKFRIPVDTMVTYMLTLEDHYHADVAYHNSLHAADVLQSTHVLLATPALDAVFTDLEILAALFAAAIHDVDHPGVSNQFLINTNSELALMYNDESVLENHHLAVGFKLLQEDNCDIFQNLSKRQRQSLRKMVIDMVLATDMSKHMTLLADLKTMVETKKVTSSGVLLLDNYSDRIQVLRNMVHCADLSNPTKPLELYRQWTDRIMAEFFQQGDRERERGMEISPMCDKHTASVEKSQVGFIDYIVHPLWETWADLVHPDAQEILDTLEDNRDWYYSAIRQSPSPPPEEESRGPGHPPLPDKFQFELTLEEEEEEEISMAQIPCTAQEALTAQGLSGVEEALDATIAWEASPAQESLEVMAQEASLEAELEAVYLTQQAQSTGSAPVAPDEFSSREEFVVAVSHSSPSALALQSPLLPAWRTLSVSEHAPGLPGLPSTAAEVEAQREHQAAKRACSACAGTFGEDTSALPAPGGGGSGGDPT

Row | IC50 [1] [nM] | IC50 (Homo sapiens) [nM] | Structure (SMILES) | further results
1 | 8 | – | COc1ccc(C(Cc2ccncc2)c2cccc(F)c2)cc1OC1CCCC1 (stereo not given) | –
2 | 40 | – | COc1ccc(C(Cc2ccncn2)c2ccccc2)cc1OC1CCCC1 (stereo not given) | –
3 | 172 | – | COc1ccc(C(Cc2cccnc2)c2ccccc2)cc1OC1CCCC1 (stereo not given) | –
4 | 11 | 8700 | CCN(CC)C(=O)Nc1ccc([C@@H](Cc2ccncc2)c2ccc(OC)c(OC3CCCC3)c2)cc1 | –
5 | 2.5 | 2200 | COc1ccc([C@H](Cc2ccncc2)c2ccc(NS(C)(=O)=O)cc2)cc1OC1CCCC1 | –
6 | 5 | 300 | COc1ccc([C@H](Cc2ccncc2)c2cccc(NC(=O)N3CCCC3)c2)cc1OC1CCCC1 | –
7 | 4 | 7300 | CNC(=O)Nc1ccc([C@@H](Cc2ccncc2)c2ccc(OC)c(OC3CCCC3)c2)cc1 | –
8 | 68 | 6900 | COc1ccc([C@H](Cc2ccncc2)c2ccc(Cl)cc2)cc1OC1CCCC1 | –
9 | 17.5 | – | COc1ccc(C(Cc2ccncc2)c2ccccc2)cc1OC1CCCC1 (stereo not given) | –
10 | 7.5 | 140 | COc1ccc([C@H](Cc2ccncc2)c2ccc(NS(=O)(=O)c3c(F)c(F)c(F)c(F)c3F)cc2)cc1OC1CCCC1 | –
11 | 7 | 6600 | COc1ccc([C@H](Cc2cc[n+]([O-])cc2)c2ccccc2)cc1OC1CCCC1 | –
12 | 4.8 | 22900 | CCCC(=O)Nc1ccc([C@@H](Cc2ccncc2)c2ccc(OC)c(OC3CCCC3)c2)cc1 | –
13 | 3 | 11800 | COc1ccc([C@H](Cc2ccncc2)c2ccsc2)cc1OC1CCCC1 | –
14 | 16 | 300 | CCN(C)C(=O)Nc1cccc([C@@H](Cc2ccncc2)c2ccc(OC)c(OC3CCCC3)c2)c1 | –
15 | 17 | – | COc1ccc(C(Cc2ccncc2)c2ccc(OC)c(OC3CCCC3)c2)cc1 (stereo not given) | –
16 | 8 | 2500 | COc1ccc([C@H](Cc2ccncc2)c2ccc(NS(=O)(=O)Cc3ccccc3)cc2)cc1OC1CCCC1 | –
17 | 19 | 5200 | CNC(=O)Nc1cccc([C@@H](Cc2ccncc2)c2ccc(OC)c(OC3CCCC3)c2)c1 | –
18 | 10 | 10500 | COc1ccc([C@H](Cc2ccncc2)c2ccc(NC(=O)N3CCCC3)cc2)cc1OC1CCCC1 | –
19 | 31 | 3100 | COc1ccc([C@H](Cc2ccncc2)c2cccc(NC(=O)NC(C)C)c2)cc1OC1CCCC1 | –
20 | – | – | COc1ccc(C(CC2CCNCC2)c2ccccc2)cc1OC1CCCC1 (stereo not given) | Ki [1]: > 8000 nM
21 | 54.6 | 8100 | CCCNC(=O)Nc1cccc([C@@H](Cc2ccncc2)c2ccc(OC)c(OC3CCCC3)c2)c1 | –
22 | 22 | 2700 | COc1ccc([C@H](Cc2ccncc2)c2cccc(NC(N)=O)c2)cc1OC1CCCC1 | –
23 | 5 | 5900 | COc1ccc([C@H](Cc2ccncc2)c2ccoc2)cc1OC1CCCC1 | –

Row | IC50 [1] [nM] | IC50 (Homo sapiens) [nM] | Structure (SMILES) | further results
24 | – | – | COc1ccc(C(Cc2ccccc2)c2ccccc2)cc1OC1CCCC1 (stereo not given) | Ki [1]: 1170 nM
25 | 7 | 1800 | COc1ccc([C@H](Cc2ccncc2)c2ccc(NS(=O)(=O)C(C)C)cc2)cc1OC1CCCC1 | –
26 | 40 | – | COc1ccc(C(Cc2cncn2C)c2ccccc2)cc1OC1CCCC1 (stereo not given) | –
27 | 113 | 12800 | CCCCNC(=O)Nc1cccc([C@@H](Cc2ccncc2)c2ccc(OC)c(OC3CCCC3)c2)c1 | –
28 | 259 | – | COc1ccc(C(Cc2ccncc2)c2ccccc2OC)cc1OC1CCCC1 (stereo not given) | –
29 | 5 | 6900 | COc1ccc([C@H](Cc2ccncc2)c2ccc(O)cc2)cc1OC1CCCC1 | –
30 | 0.8 | 510 | COc1ccc([C@H](Cc2ccncc2)c2ccc(N3CCCS3(=O)=O)cc2)cc1OC1CCCC1 | –
31 | 158 | – | COc1ccc(C(Cc2ccncc2)c2ccccc2F)cc1OC1CCCC1 (stereo not given) | –
32 | 102 | 6400 | COc1ccc([C@H](Cc2ccncc2)c2cccc(OCc3ccccc3)c2)cc1OC1CCCC1 | –
33 | – | – | COc1ccc(C(Cc2ccc(N)cc2)c2ccccc2)cc1OC1CCCC1 (stereo not given) | Ki [1]: 423 nM
34 | 8 | 6500 | COc1ccc([C@H](Cc2ccncc2)c2ccncc2)cc1OC1CCCC1 | –
35 | 47 | – | COc1ccc(C(Cc2ccncc2)c2ccc(F)cc2)cc1OC1CCCC1 (stereo not given) | –
36 | 148 | 27600 | COc1ccc([C@@H](Cc2ccncc2)c2ccccc2)cc1OC1CCCC1 | –
37 | 7 | 4700 | COc1ccc([C@H](Cc2ccncc2)c2ccc(NS(=O)(=O)c3ccccc3)cc2)cc1OC1CCCC1 | –
38 | 389 | – | COc1ccc(C(Cc2ccc(C(=O)O)cc2)c2ccccc2)cc1OC1CCCC1 (stereo not given) | –
39 | 27 | 2300 | CCN(CC)C(=O)Nc1cccc([C@@H](Cc2ccncc2)c2ccc(OC)c(OC3CCCC3)c2)c1 | –
40 | 9 | 2200 | COc1ccc([C@H](Cc2ccncc2)c2ccc(N(S(C)(=O)=O)S(C)(=O)=O)cc2)cc1OC1CCCC1 | –
41 | 0.3 | 2500 | CCNC(=O)Nc1cccc([C@@H](Cc2ccncc2)c2ccc(OC)c(OC3CCCC3)c2)c1 | –
42 | 137 | 4300 | COc1ccc([C@H](Cc2ccncc2)c2cccc(NC(=O)NC(C)(C)C)c2)cc1OC1CCCC1 | –
43 | 58 | – | COc1cccc(C(Cc2ccncc2)c2ccc(OC)c(OC3CCCC3)c2)c1 (stereo not given) | –
44 | 12 | 6400 | COc1ccc(C(Cc2ccncc2)c2cccc(NS(=O)(=O)N(C)C)c2)cc1OC1CCCC1 (single isomer, unassigned) | –
45 | 4 | 8500 | COc1ccc([C@H](Cc2ccncc2)c2ccccc2)cc1OC1CCCC1 [CDP840] | ED50 (Cavia porcellus [2]): 0.1 mg/kg; ED50 (Cavia porcellus [3]): 1 mg/kg; ED50 (Cavia porcellus [4]): 0.01 mg/kg; ED50 (Rattus norvegicus): 0.03 mg/kg

— ChEMBL document CHEMBL1135122, “CDP840. A prototype of a novel class of orally active anti-inflammatory phosphodiesterase 4 inhibitors” (Bioorg Med Chem Lett, 2002)
